The record followed here is patent publication US8309580B2, “Heterocyclic compound” (Takeda Pharmaceutical Company Limited, priority 2007, dated 2012).

Chain of human-type glucagon receptor (P47871 26-477): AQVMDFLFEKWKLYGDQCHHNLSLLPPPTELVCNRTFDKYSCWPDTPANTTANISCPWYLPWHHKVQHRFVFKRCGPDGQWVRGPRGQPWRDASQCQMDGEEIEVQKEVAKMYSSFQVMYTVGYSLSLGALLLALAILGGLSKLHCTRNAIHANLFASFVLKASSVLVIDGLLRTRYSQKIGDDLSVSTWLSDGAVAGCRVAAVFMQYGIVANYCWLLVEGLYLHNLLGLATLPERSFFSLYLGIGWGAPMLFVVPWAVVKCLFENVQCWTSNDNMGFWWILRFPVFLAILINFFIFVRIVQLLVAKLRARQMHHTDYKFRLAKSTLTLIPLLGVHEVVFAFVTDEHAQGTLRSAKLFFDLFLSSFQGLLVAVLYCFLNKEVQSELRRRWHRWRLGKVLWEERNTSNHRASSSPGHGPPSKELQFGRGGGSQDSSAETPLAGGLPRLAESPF

The subject of one experiment is glucagon-induced blood glucose increase. The experiment is described as follows: Test of glucagon-induced blood glucose increase-suppressive action in mouse. The class given is in vivo. Conditions: male ICR mouse, fasted; test compound 10 mg/kg orally 60 min before s.c. glucagon 10 μg/kg with octreotide; blood glucose 30 min after glucagon. How it is done: Test of Glucagon-Induced Blood Glucose Increase-Suppressive Action in Mouse
Full feeding ICR mouse (male, 7-week-old) was fasted, and 0.5% methylcellulose suspension (compound-administration group, 8 mice per group) containing a test compound (10 mg/kg body weight) or 0.5% methylcellulose suspension (compound-non-administration group, 8 mice per group) was orally administered. After 60 minutes, glucagon (10 μg/kg body weight, Novo Nordisk Pharma Ltd.) containing octreotide (100 μg/kg body weight, Novo Nordisk Pharma Ltd.) was subcutaneously administered. After 30 minutes from the glucagon administration, blood samples were collected from the tail vein of the mouse, and the blood glucose level was measured by a glucose self-test kit ACCU-CHEK (Roche Diagnostics K.K.). As a non-treatment group (8 mice per group), the blood glucose level of mouse of the compound-non-administration group, which was free of glucagon administration, was measured in the same manner as in the above.
The differences between the average blood glucose level of the compound-non-administration group, the average blood glucose level of the compound administration group, and the average blood glucose level of the non-treatment group were each calculated, and the percentage of the “difference between the blood glucose level of the compound administration group and that of the non-treatment group” relative to the “difference between the blood glucose level of the compound-non-administration group and that of the non-treatment group” as 100% was determined as an “increasing rate of blood glucose (% of control)”.
In the case of `CCc1oc(-c2ccc(C(F)(F)F)cc2)cc1C(Nc1ccc(C(=O)N(C)CCC(=O)O)cc1)C1CCCCC1` (centres unmarked) [Ex. 87, 3-[({4-[(cyclohexyl{2-ethyl-5-[4-(trifluoromethyl)phenyl]furan-3-yl}methyl)amino]phenyl}carbonyl)(methyl)amino]propanoic acid], the “increasing rate of blood glucose (% of control)” value is 6.5 % of control.
Still for that read-out and setting: with `COCc1oc(-c2ccc(OC)nc2)cc1C(Nc1ccc(C(=O)N(C)CCC(=O)O)cc1)C1CCCCC1` (centres unmarked) [Example 147, 3-[{[4-({cyclohexyl[2-(methoxymethyl)-5-(6-methoxypyridin-3-yl)furan-3-yl]methyl}amino)phenyl]carbonyl}(methyl)amino]propanoic acid] the figure was 8.6 % of control; with `COc1ccc(-c2cc(C(CC(C)C)Nc3ccc(C(=O)N(C)CCC(=O)O)cc3)c(C)o2)cn1` (centres unmarked) [Example 149, 3-[{[4-({1-[5-(6-methoxypyridin-3-yl)-2-methylfuran-3-yl]-3-methylbutyl}amino)phenyl]carbonyl}(methyl)amino]propanoic acid], 6.8 % of control.

A further experiment concerns the target human-type glucagon receptor (Homo sapiens, UniProt P47871). The experiment is described as follows: Glucagon binding inhibitory activity ([125I]-glucagon binding to glucagon receptor membrane protein). Conditions: glucagon receptor membrane protein from FreeStyle CHO cells, 90 min at room temperature. How it is done:
The glucagon binding inhibitory action of the compound of the present invention was evaluated by the following method.
(1) Preparation of Glucagon Receptor Membrane Protein
A human-type glucagon receptor was expressed using FreeStyle CHO Expression System (Invitrogen). A transient expression in FreeStyle CHO cell was performed using a human-type glucagon expression plasmid DNA and according to the manual attached to the FreeStyle CHO Expression System. The above-mentioned DNA was transfected and the cultured with shaking for 2 days (37° C., 8% CO2, 125 rpm). 2400 ml of culture medium was centrifuged at 2,000 rpm for 10 min and the cells were collected. The collected cells were washed with PBS, suspended in homogenate buffer [10 mM NaHCO3 (pH 7.4), 1 mM EDTA, Complete EDTA-free (Roche, 1 tablet/50 mL)] and disrupted by polytron cell disrupter (Kinematica AG). Disruption solution was centrifuged at 2,000 rpm for 10 min and the supernatant was collected. The supernatant was centrifuged at 35,000 rpm for 60 min and the precipitate was suspended in a buffer [20 mM Tris-HCl (pH 7.4), 5 mM EDTA, Complete EDTA-free (Roche, 1 tablet/50 mL)] to give a glucagon receptor membrane protein (452 mg).
(2) Measurement of Glucagon Binding Inhibitory Activity
To each well of 96 well plate (Corning Incorporated) were added 25 μl of test compound (containing 0.4% DMSO), 50 μl of glucagon receptor membrane protein diluted with reaction buffer [50 mM Tris-HCl (pH 7.4), 5 mM EGTA, 5 mM magnesium chloride, 0.1% BSA, 0.005% Tween20] to 100 μg/ml, and 25 μl of radioactive labeled glucagon ([^125I]-Receptor Grade Glucagon; Perkin Elmer Inc.) diluted with the reaction buffer to 200 pM, whereby the reaction was started. The plate was stood for 90 min at room temperature. The reaction solution was transferred from the reaction plate to a 96 well unifilter GF/C plate (Perkin Elmer Inc.) using a cell harvester (Perkin Elmer Inc.) and the membrane fraction was collected on the filter by suction. The filter was presoaked in 2 mg/ml of polyethyleneimine to prevent non-specific adsorption of labeled ligand. The filter was washed 4 times with a reaction buffer and dried for 2 hr at 42° C. To each well was added 25 μl of scintillator (MicroScint0; Perkin Elmer Inc.), and the fluorescence amount was measured using a microplate scintillation counter (TopCount NXT™; Perkin Elmer Inc.). The glucagon binding inhibitory activity (IC50 value) of the well added with the test compound (containing 0.4% DMSO) was calculated, using the reaction rate of the well added only with 0.4% DMSO as 0% inhibitory rate, and the reaction rate of the well added with non-labeled glucagon (final concentration 1 μM) as 100% inhibitory rate.
Molecule `COc1ccc(-c2cc(C(Nc3ccc(C(=O)N(C)CCC(=O)O)cc3)C3CCCCC3)c(C)o2)cn1` (single isomer, unassigned) [Ex. 166, 3-[{[4-({cyclohexyl[5-(6-methoxypyridin-3-yl)-2-methylfuran-3-yl]methyl}amino)phenyl]carbonyl}(methyl)amino]propanoic acid] returned an IC50 of 180 nM.
Same read-out and setting: with `COc1ccc(-c2cc(C(CC(C)C)Nc3ccc(C(=O)N(C)CCC(=O)O)cc3)c(C)o2)cn1` (single isomer, unassigned) [Ex. 319, 3-[{[4-({1-[5-(6-methoxypyridin-3-yl)-2-methylfuran-3-yl]-3-methylbutyl}amino)phenyl]carbonyl}(methyl)amino]propanoic acid] the figure was 230 nM; with `CCc1oc(-c2ccc(C(F)(F)F)cc2)cc1C(CC(C)C)Oc1ccc(C(=O)NCCC(=O)O)cc1` (centres unmarked) [Ex. 5, 3-{[4-(1-{2-ethyl-5-[4-(trifluoromethyl)phenyl]-3-furyl}-3-methylbutoxy)benzoyl]amino}propanoic acid], 630 nM.
On to `CCc1oc(-c2ccc(C(F)(F)F)cc2)cc1C(Nc1ccc(C(=O)N(C)CCC(=O)O)cc1)C1CCCCC1` (centres unmarked) [Ex. 10, 3-[{4-[(cyclohexyl{2-ethyl-5-[4-(trifluoromethyl)phenyl]-3-furyl}methyl)amino]benzoyl}(methyl)amino]propanoic acid], for which the concentration for half-maximal inhibition (IC50) stood at 250 nM.
On the same count and under the same terms, next, `Cc1oc(-c2ccc(OC(F)(F)F)cc2)cc1C(Nc1ccc(C(=O)NCCC(=O)O)cc1)C1CCCCC1` (centres unmarked) [Ex. 53, 3-({4-[(cyclohexyl{2-methyl-5-[4-(trifluoromethoxy)phenyl]-3-furyl}methyl)amino]benzoyl}amino)propanoic acid]: 110 nM.
The molecule `CCc1sc(-c2ccc(C(F)(F)F)cc2)cc1C(Nc1ccc(C(=O)NCCC(=O)O)cc1)C1CCCCC1` (centres unmarked) [Ex. 71, 3-[({4-[(cyclohexyl{2-ethyl-5-[4-(trifluoromethyl)phenyl]thiophen-3-yl}methyl)amino]phenyl}carbonyl)amino]propanoic acid] yielded a half-maximal inhibitory concentration (IC50) of 57 nM.
Still for that read-out and setting: with `CCc1sc(C2CCCCC2)cc1C(Nc1ccc(C(=O)NCCC(=O)O)cc1)C1CCCCC1` (centres unmarked) [Ex. 79, 3-{[(4-{[cyclohexyl(5-cyclohexyl-2-ethylthiophen-3-yl)methyl]amino}phenyl)carbonyl]amino}propanoic acid] the figure was 97 nM; with `CCc1sc(CC(C)C)cc1C(Nc1ccc(C(=O)NCCC(=O)O)cc1)C1CCCCC1` (centres unmarked) [Ex. 83, 3-({[4-({cyclohexyl[2-ethyl-5-(2-methylpropyl)thiophen-3-yl]methyl}amino)phenyl]carbonyl}amino)propanoic acid], 190 nM.
As for `Cc1sc(-c2ccccc2)cc1C(Nc1ccc(C(=O)N(C)CCC(=O)O)nc1)C1CCCCC1` (centres unmarked) [Ex. 311, 3-{[(5-{[cyclohexyl(2-methyl-5-phenylthiophen-3-yl)methyl]amino}pyridin-2-yl)carbonyl](methyl)amino}propanoic acid], the 50% inhibitory concentration (IC50) is 650 nM.
In the case of `COCc1oc(-c2ccc(F)cc2)cc1C(Nc1ccc(C(=O)N(C)CCC(=O)O)cc1)C1CCCCC1` (centres unmarked) [Ex. 314, 3-[{[4-({cyclohexyl[5-(4-fluorophenyl)-2-(methoxymethyl)furan-3-yl]methyl}amino)phenyl]carbonyl}(methyl)amino]propanoic acid], the IC50 is 290 nM. This IC50 is about 2.2-fold lower than that of the molecule before.
`Cc1oc(-c2ccc(F)cc2)cc1C(Nc1ccc(C(=O)N(C)CCC(=O)O)nc1)C1CCCCC1` (centres unmarked) [Ex. 318, 3-[{[5-({cyclohexyl[5-(4-fluorophenyl)-2-methylfuran-3-yl]methyl}amino)pyridin-2-yl]carbonyl}(methyl)amino]propanoic acid]: the IC50 was 400 nM.

As a reminder, the IC50 is the point on the concentration scale where inhibition reaches its midpoint. A lower IC50 goes with greater potency in that assay.
